Common to all, as to assay type: cell-based
The subject of one test is human washed platelets. Put plainly: Inhibition of Convulxin-mediated platelet calcium mobilization in vitro. The settings on record: 125 ng/mL Convulxin. As to the method:
Inhibition of Convulxin-induced calcium mobilization was determined in human washed platelets using the FLIPR Calcium 3 Assay Kit (Molecular Devices, Sunnyvale, Calif.). For preparation of washed platelets, human venous blood was collected from healthy, drug-free volunteers into ACD (85 mM sodium citrate, 111 mM glucose, 71.4 mM citric acid) containing PGI2 (1.25 mL ACD containing 0.2 μM PGI2 final; PGI2 from Sigma, St. Louis, Mo.). Platelet-rich plasma (PRP) was prepared by centrifugation at 160×g for 20 minutes at room temperature. Washed platelets were prepared by centrifuging PRP for 10 minutes at 730×g and resuspending the platelet pellet in CGS (13 mM sodium citrate, 30 mM glucose, 120 mM NaCl; 2 mL CGS/10 mL original blood volume). The wash in CGS was repeated a second time, the platelets were collected by centrifugation at 730 g for 10 minutes and resuspended at a concentration of 3×10^8 platelets/mL in Hepes-Tyrode's buffer (10 mM Hepes, 138 mM NaCl, 5.5 mM glucose, 2.9 mM KCl, 12 mM NaHCO3, pH 7.4). This platelet suspension was allowed to rest for 45 minutes at room temperature before use in calcium mobilization assays.
For 96-well plate calcium-mobilization experiments, equal volumes of 3×10^8 washed platelets/mL were incubated with equal volumes of Calcium-3 Assay Reagent A resuspended in 1× Hank's Balanced Salt Solution, pH 7.4, 20 mM Hepes buffer. The total reaction volume of 0.2 mL/well included 1.5×10^8/mL washed platelet/Calcium-3 Assay reagent A mix, 10 μM Eptifibatide (Millennium Pharmaceuticals Inc, Cambridge, Mass.) and serial dilutions (1:3) of test compounds in 0.75% DMSO. DMSO alone was added to 1 well of each 8 set to allow for a maximal calcium-mobilization reading. After a 20 minute preincubation at room temperature, the 96-well microplate reader was loaded into the FlexStation (Molecular Devices, Sunnyvale, Calif.). The FlexStation experimental conditions for measuring calcium mobilization were set up using SOFTMax Pro. The settings used were as follows: Fluorescence parameters-assay mode: flex, excitation 485 nm, 525 nM with a cut-off of 515 nM; Parameters—PMT sensitivity-6, pipette height 230 μl, read time 2 minutes and 40 seconds, read intervals 2 seconds, temperature-23-25° C. After 18 seconds of baseline reading, calcium mobilization was initiated by the addition of Convulxin to a final concentration of 125 ng/mL. Inhibition of calcium mobilization was calculated as the maximum response observed in the presence of inhibitor, compared to that in the absence of inhibitor. IC50s were then derived by non-linear regression analysis.

Test [1] has as its system human platelet-rich plasma (PRP). The test can be described thus: Convulxin-induced aggregation assay (cuvette light transmittance). The settings on record: 125-250 ng/mL Convulxin, read-out: IC50, inhibition of convulxin-induced aggregation of platelet rich plasma. The procedure: For preparation of human platelet-rich plasma (PRP) for aggregation assays, human venous blood was collected from healthy, drug-free volunteers into 0.38% sodium citrate (0.013 M, pH 7.0 final). PRP was prepared by centrifugation of whole blood at 160×g for 20 minutes at room temperature. The PRP layer was removed, transferred to a new tube, and the platelet count was adjusted, if necessary, to achieve a platelet concentration of ˜3×10^8 platelets/mL using platelet-poor plasma (PPP). PPP was prepared by centrifugation of the remaining blood sample (after removal of PRP) for 20 minutes at 800×g. This preparation of PRP may be subsequently used for aggregation assays in either a 96-well plate or standard cuvette aggregometry.
Inhibition of Convulxin-induced aggregation was determined by cuvette light transmittance aggregation assays. Serial dilutions (1:2) of test compounds were prepared in 30% DMSO in a 96-well V-bottom plate (final DMSO concentration in the cuvette was 0.3%). The test compound (5 μl of serial dilutions in DMSO) was preincubated with PRP for 20 minutes prior to initiation of the aggregation reactions, which were performed in a ChronoLog aggregometer by addition of agonist (125-250 ng/mL Convulxin) to 495 μL of PRP at 37° C. The aggregation reaction was recorded for 4 minutes, and the maximum extent of aggregation was determined by the difference in extent of aggregation at baseline, compared to the maximum aggregation that occurred during the 4 minute period of the assay. Inhibition of aggregation was calculated as the maximum aggregation observed in the presence of inhibitor, compared to that in the absence of inhibitor. IC50s were derived by non-linear regression analysis.

For test [2], the system named is IL-4 induced STAT-6 phosphorylation (JAK1/JAK3) in Ramos B-cells. The test can be described thus: JAK3/STAT6 cellular assay: IL-4 induced STAT-6 phosphorylation, intracellular flow cytometry. The following applies: Homo sapiens, Ramos B-cells pre-treated 1 hour, IL-4 10 minutes. The text has this:
Similar types of assays can be used to assess JAK kinase inhibitory activity and to determine the degree of selectivity of the particular compound as compared to Syk kinase. One means of assaying for such inhibition is detection of the effect of the compounds of the present invention on the upregulation of downstream gene products. In the Ramos/IL4 assay, B-cells are stimulated with the cytokine Interleukin-4 (IL-4) leading to the activation of the JAK/Stat pathway through phosphorylation of the JAK family kinases, JAK1 and JAK3, which in turn phosphorylate and activate the transcription factor Stat-6. […] To study the effect of inhibitors (e.g., the 2,4-substituted pyrimindinediamine compounds described herein) on the JAK1 and JAK3 kinases, human Ramos B-cells are stimulated with human IL-4. 10′ post-stimulation, cells are subjected to intracellular flow cytometry to measure the extent of STAT-6 phosphorylation. 20 to 24 hours post-stimulation, cells are stained for upregulation of CD23 and analyzed using flow cytometry.
Stimulation of Ramos B-cells by IL-4 leads to signaling through JAK1/JAK3 resulting in phosphorylation of STAT6 (signal transducers and activators of transcription). The effect of compounds on inhibition of JAK3 and/or JAK1 can be assessed by measuring the amount of phosphorylated STAT6. This may be performed by Western blotting and/or intracellular flow cytometry using a specific phospho-STAT6 antibody. Data describing compound inhibition of IL-4 induced STAT-6 phosphorylation (measured by intracellular flow cytometry) for Compound 1-1 (Example 1) is presented in the following table.
For the data in the above Table, Ramos B-cells were pre-treated for 1 hour with increasing concentrations of Compound 1-1, as indicated prior to addition of IL-4. Cells were incubated with IL-4 for 10 minutes, and then subjected to intracellular flow cytometry to measure the percent inhibition of IL-4 induced Stat-6, as shown.

The structures appear in SMILES notation.

`CC(=O)N1CCN(c2ccc(Nc3nc(Nc4ccc5cn[nH]c5c4)c4cc[nH]c4n3)cc2)CC1` [Compound 1-1, 1-(4-(4-(4-(1H-indazol-6-ylamino)-7H-pyrrolo[2,3-d]pyrimidin-2-ylamino)phenyl)piperazin-1-yl)ethanone]: the IC50 is under 1 µM with human washed platelets and at most 50 µM in test [1]. The inhibition at 0.05 µM in test [2] (0.05 μM compound) amounted to 0%. Besides, the inhibition at 0.125 µM in test [2] (0.125 μM compound) was found to be 6%. The inhibition at 0.25 µM in test [2] (0.25 μM compound) stood at 22%. Moreover, in test [2] (0.5 μM compound), the inhibition at 0.5 µM turned out to be 33%. Besides, the inhibition at 1 µM in test [2] (1 μM compound) came out at 41%. The inhibition at 2 µM in test [2] (2 μM compound) amounted to 49%.

`CS(=O)(=O)c1ccc(Nc2nc(Nc3ccc4cn[nH]c4c3)c3cc[nH]c3n2)cc1` [Compound 9-1, N4-(1H-indazol-6-yl)-N2-(4-(methylsulfonyl)phenyl)-7H-pyrrolo[2,3-d]pyrimidine-2,4-diamine]: the IC50 was under 1 µM in the test on human washed platelets and at most 50 µM in test [1].

Source of the values: patent US7705004B2, “Protein kinase inhibitors” (Portola Pharmaceuticals, Inc., priority 2007, dated 2010).
